Data reported in article PMC6109596 (Cancer letters, 2018).

Biological target: ABCB1 (P-glycoprotein/MDR1) (Homo sapiens, UniProt P08183)
Test: biochemical

ABCB1 (P-glycoprotein/MDR1), sequence (P08183 whole entry): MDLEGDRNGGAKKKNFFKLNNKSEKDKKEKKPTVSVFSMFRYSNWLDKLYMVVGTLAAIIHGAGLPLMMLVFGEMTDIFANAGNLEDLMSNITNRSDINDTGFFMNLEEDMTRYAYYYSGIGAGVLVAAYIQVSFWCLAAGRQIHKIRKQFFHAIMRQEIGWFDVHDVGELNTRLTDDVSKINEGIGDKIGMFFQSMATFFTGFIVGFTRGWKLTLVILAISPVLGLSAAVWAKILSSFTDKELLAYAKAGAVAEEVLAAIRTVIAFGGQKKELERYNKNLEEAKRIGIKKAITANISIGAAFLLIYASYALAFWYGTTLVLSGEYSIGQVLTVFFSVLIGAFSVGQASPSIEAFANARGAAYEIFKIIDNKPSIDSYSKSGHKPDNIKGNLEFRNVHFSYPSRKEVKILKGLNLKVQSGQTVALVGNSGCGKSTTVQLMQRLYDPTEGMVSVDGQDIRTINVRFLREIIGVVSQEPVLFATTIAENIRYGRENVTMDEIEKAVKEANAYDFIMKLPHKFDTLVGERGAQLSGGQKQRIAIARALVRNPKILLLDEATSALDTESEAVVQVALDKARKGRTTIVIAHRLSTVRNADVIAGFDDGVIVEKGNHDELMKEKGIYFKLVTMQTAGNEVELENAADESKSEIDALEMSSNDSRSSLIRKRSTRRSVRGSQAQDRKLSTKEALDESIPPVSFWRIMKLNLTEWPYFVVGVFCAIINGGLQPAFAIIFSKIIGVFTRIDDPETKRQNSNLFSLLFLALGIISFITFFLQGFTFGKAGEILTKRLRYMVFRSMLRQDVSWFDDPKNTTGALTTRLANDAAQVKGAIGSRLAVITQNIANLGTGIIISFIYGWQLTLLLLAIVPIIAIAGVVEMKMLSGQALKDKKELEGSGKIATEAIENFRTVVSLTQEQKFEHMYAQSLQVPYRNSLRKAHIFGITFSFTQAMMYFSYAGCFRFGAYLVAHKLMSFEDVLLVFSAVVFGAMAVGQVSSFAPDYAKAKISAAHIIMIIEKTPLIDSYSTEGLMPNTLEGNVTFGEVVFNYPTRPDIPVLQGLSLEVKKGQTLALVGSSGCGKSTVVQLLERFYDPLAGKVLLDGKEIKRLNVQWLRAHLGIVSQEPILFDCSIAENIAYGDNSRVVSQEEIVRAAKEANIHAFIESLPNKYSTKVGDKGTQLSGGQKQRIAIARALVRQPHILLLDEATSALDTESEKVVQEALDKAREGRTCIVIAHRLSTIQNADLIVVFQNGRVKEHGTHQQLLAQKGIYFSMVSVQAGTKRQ

Q: `N#Cc1cc2c(OCC(O)CN3CCN(C(c4ccccc4)c4ccccc4)CC3)cccc2[nH]1` (racemic) [DPI-201106] was tested. Which IC50 did it give?
A: ~0.5 µM
